One compound from patent US11905286B2, “Diazabicyclooctanones as inhibitors of serine beta-lactamases” (priority 2018, dated 2024) can be followed below.

Structures can show the parent of a compound that is named as a salt.

The test system of experiment [1] is NTBC093 (E. cloacae strain expressing KPC-2, TEM-1). Description: Meropenem potentiation, broth micro-dilution MIC, strain NTBC093. To be noted: Enterobacter cloacae, read-out: MIC mero + 4 μg/mL inhibitor.
Protocol: (§2) The experiments were carried out using the ‘broth micro-dilution method’ according to the protocols M07-A8 established by the Clinical Laboratory Standards Institute (CLSI). […] After incubation for 18-20 hours in a heating chamber at 37° C., the growth inhibition was evaluated by the absence of any bacterial development.
(§3) Compounds of the invention were tested at concentrations of 4 μg/mL.
The next experiment has as its target CTX-M15 (Escherichia coli, UniProt Q9EXV5). The experiment can be described thus: In vitro enzyme inhibition assay (nitrocefin hydrolysis), CTX-M15. It is filed as biochemical. How it is done: (§1) Compound dilution was performed in DMSO.
Experiment [2] relates to NTBC091.1 (E. coli strain expressing KPC-2, TEM-1). Description: Meropenem potentiation, broth micro-dilution MIC, strain NTBC091.1. The format is cell-based.
Protocol: as §2, §3
For a further experiment, the target named is OXA-48 (Klebsiella pneumoniae, UniProt Q6XEC0). The experiment can be described thus: In vitro enzyme inhibition assay (nitrocefin hydrolysis), OXA-48. It is filed as biochemical. The protocol: as §1
The target in another experiment is KPC-2 (Klebsiella pneumoniae, UniProt Q9F663). The experiment can be described thus: In vitro enzyme inhibition assay (nitrocefin hydrolysis), KPC-2. The format is biochemical. The protocol:
as §1

Experiment [3] relates to NTBC096.1 (K. pneumoniae strain expressing OXA-181 and SHV-11). Description: Meropenem potentiation, broth micro-dilution MIC, strain NTBC096.1. It is filed as cell-based. Conditions: Klebsiella pneumoniae, read-out: MIC mero + 4 μg/mL inhibitor.
Protocol: as §2, §3
The subject of experiment [4] is NTBC189 (K. pneumoniae strain expressing TEM-OSBL(b), CTX-M-14, OXA-48(c)). Description: Meropenem potentiation, broth micro-dilution MIC, strain NTBC189. Conditions: Klebsiella pneumoniae, read-out: MIC mero + 4 μg/mL inhibitor.
Protocol: as §2, §3
Experiment [5] concerns NTBC099 (K. pneumoniae strain expressing KPC-3, SHV-11 and TEM-1). The experiment can be described thus: Meropenem potentiation, broth micro-dilution MIC, strain NTBC099. To be noted: Klebsiella pneumoniae, read-out: MIC mero + 4 μg/mL inhibitor.
Protocol: as §2, §3

Sequence of OXA-48 (Q6XEC0 23-265 limits assumed): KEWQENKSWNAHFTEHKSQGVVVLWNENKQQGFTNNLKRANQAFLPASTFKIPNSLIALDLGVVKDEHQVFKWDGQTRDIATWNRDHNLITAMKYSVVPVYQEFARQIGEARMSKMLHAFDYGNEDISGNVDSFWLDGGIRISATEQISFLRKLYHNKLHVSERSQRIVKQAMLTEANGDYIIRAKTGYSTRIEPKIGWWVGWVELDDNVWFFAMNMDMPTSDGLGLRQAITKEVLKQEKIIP
Sequence of CTX-M15 (Q9EXV5 entry or part of it): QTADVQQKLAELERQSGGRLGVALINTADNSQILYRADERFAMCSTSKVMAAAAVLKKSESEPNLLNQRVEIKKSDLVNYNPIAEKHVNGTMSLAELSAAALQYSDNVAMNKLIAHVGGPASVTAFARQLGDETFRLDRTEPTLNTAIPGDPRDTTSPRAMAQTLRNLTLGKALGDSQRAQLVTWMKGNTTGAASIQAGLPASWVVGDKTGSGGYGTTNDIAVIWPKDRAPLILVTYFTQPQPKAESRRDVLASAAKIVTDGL
Sequence of KPC-2 (Q9F663 25-293 limits assumed): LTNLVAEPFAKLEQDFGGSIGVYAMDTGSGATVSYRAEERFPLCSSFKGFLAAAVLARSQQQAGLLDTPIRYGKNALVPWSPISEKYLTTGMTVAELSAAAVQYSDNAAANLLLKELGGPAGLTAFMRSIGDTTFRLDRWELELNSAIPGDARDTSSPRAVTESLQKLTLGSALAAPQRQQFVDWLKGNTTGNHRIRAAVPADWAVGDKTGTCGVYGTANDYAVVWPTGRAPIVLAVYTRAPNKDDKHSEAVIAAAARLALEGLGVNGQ

Take `O=C1N2C[C@@H](CC[C@H]2C(F)F)N1OS(=O)(=O)O` [Example 2, Sodium (2S, 5R)-7-oxo-2-(difluoromethyl)-1,6-diazabicyclo[3.2.1]octan-6-yl sulfate]: the MIC in experiment [1] worked out at 0.06 µg/mL; in experiment [3] it was 4 µg/mL; in experiment [4], 2 µg/mL; in experiment [5], 1 µg/mL. Besides, the IC50 is 5 to 20 nM against CTX-M15, 20 to 100 nM against OXA-48 and < 10 nM against KPC-2. Further, in experiment [2] (NTBC091.1), the “MIC of meropenem + compound compared with meropenem + avibactam” value was “lower”. Moreover, the “MIC mero + 4 μg/mL inhibitor (banded)” value in experiment [2] (NTBC091.1, MIC of meropenem with 4 μg/mL of the labelled inhibitor, band) is recorded as “(A) (1 μg/mL)”.
